Source: patent US11685738B2, “Fluorinated tetrahydronaphthyridinyl nonanoic acid derivatives and uses thereof” (OcuTerra Therapeutics, Inc., priority 2015, dated 2023)
pIC50: −log10 of the molar value.

Legend:
αvβ6 = αvβ6 (Homo sapiens (Human), UniProt P06756+P18564); experiment: αVβ6–LAP-TGF β1 integrin binding assay (integrin-coupled beads, flow cytometry); conditions: for pIC50: ligand LAP TGF-β1; for αvβ8/αvβ6: ratio of αvβ8 IC50 to αvβ6 IC50
From the text: (§1) All αV Integrins are known to bind to proteins with a RGD motif. Two RGD ligands were used in this study: Vitronectin (VN) as a ligand for αVβ3 and αVβ5 (Wayner et al., J. Cell Biol., 113 (4), 919-929, 1991), and LAP TGF-β1 (LAP1) as a ligand for αVβ6 and αVβ8 (Rognoni et al., Nat. Med., 20(4): 350-359, 2014). CWHM12 was used as a positive control for αVβ6 and αVβ8 (Henderson et al., Nat. Med. 19(12), 10.1038/nm.3282 2013), and Cilengitide as a positive control for αVβ3 and αVβ5 (Kumar et al., J. Pharmacol. Exp. Ther., 283, 843-853, 1997).
(§2) The integrin coupled Dyna beads were allowed to interact with respective ligands. The integrin-ligand complex was detected with either Primary/Secondary Antibody conjugated with Fluorescein Isothiocyanate (FITC). For αVβ3 and αVβ5, Vitronectin was used as a ligand and a primary antibody conjugated with FITC (Anti-VN-FITC Ab) was used to detect the interaction. For αVβ6 and αVβ8, LAP-TGF (31 was used as ligand and a primary antibody against LAP1 (Anti-LAP1 Ab) and a secondary antibody conjugated with FITC were used to detect the αVβ6/αVβ8-LAP-TGF (31 complex. Fluorescence was measured by Flow Cytometry analysis.
(§3) 5 mg of Dyna beads were weighed in a low protein binding microfuge (Eppendorf) tube (1.5 mL volume). The beads were re-suspended in 1 mL of Sodium Phosphate Buffer and vortexed at high speed for 30 seconds. The tube was then placed in a tube roller and tilt rotated for 10 min. After tilt rotation, the tube was placed on the Magna Spin and the beads were allowed to settle. The supernatant was discarded and the beads were washed three times. The beads were then re-suspended in 100 μL of Sodium Phosphate Buffer and 20 μL of washed beads were distributed into 5 low protein binding Eppendorf tubes (1 mg of beads in each tube). The beads were used for coupling integrins.
(§4) 20 μL of (1 mg) of beads were mixed with 20 μL of integrins (20 μg) and 20 μL of 3 M Ammonium Sulfate solution (final concentration of ammonium sulfate was 1M) to achieve a Bead: Protein ratio of 5 mg:100 μg. The solution was mixed gently and placed in a tube roller and incubated at 37° C. for 16 hours.
(§5) αVβ6/αVβ8 coupled beads were treated with the ligand LAP TGF-β1 (LAP1) at room temperature for 3 hours. The complex (Integrin+Ligand) was then treated with primary Ab (Anti-LAP1 Ab) overnight at 4° C. The whole complex (Integrin+Ligand+Primary Ab) was treated with Secondary Ab conjugated with FITC and incubated for 2 hours. The complex was analyzed by either plate reader or Flow Cytometer.
(§6) 10 μL of αVβ6/αVβ8 coupled beads were taken for the experiment. The concentration of integrins was 10 nM. 10 μL of LAP1 was taken (10 nM for aVβ6 and 20 nM for aVβ8). Reaction between integrin coupled beads and LAP1 was considered as the full reaction, and reaction without LAP1 or a compound of the disclosure was considered as the blank reaction. The samples were incubated in low protein binding tubes at room temperature for 3 hours. The tubes were briefly spun and placed in a Magna spin. The supernatant was removed. The beads were washed with assay buffer twice to remove excess LAP1 and then re-suspended in […] assay buffer containing 1:200 anti-LAP1 Ab (primary Ab). The tubes were placed in a tube roller and incubated at 4° C. overnight. After a brief spin, the tubes were then placed in a Magna spin and the supernatant was removed. The beads were washed with assay buffer twice to remove excess primary Ab and then re-suspended in 150 μL of assay buffer containing 1:500 secondary Ab conjugated with FITC. The tubes were incubated at room temperature for 2 hours in a tube roller. After a brief spin, the tubes were placed in a Magna spin and the supernatant was removed. The beads were washed with assay buffer twice followed by PBS. The beads were then re-suspended in 300 μL of PBS and analyzed by a Flow Cytometer (BD FACSCalibur, Software—BDcell Quest Pro Version 6). […]

αvβ8 = αvβ8 (Homo sapiens (Human), UniProt P06756+P26012); experiment: αVβ8–LAP-TGF β1 integrin binding assay (integrin-coupled beads, flow cytometry); conditions: ligand LAP TGF-β1
From the text: as §1, §2, §3, §4, §5, §6

αvβ3 = αvβ3 (Homo sapiens (Human), UniProt P05106+P06756); experiment: αVβ3–vitronectin integrin binding assay (integrin-coupled beads, flow cytometry); conditions: ligand vitronectin
From the text: as §1, §2, §3, §4
αVβ3/αVβ5 coupled beads were treated with the ligand at room temperature for 3 hours. The complex (Integrin+Ligand) was then treated with Anti-Vitronectin Ab conjugated with FITC overnight at 4° C. The complex was analyzed by either plate reader or Flow Cytometer.
10 μL of αVβ3/αVβ5 coupled beads were taken for the experiment. The concentration of integrins was 10 nM. 10 μL of vitronectin was taken. The concentration was 10 nM. Reaction between integrin coupled beads and vitronectin was considered as the full reaction, and reaction without vitronectin or a compound of the disclosure was considered as the blank reaction. The samples were incubated in low protein binding tubes at room temperature for 3 hours. The tubes were briefly spun and placed in a Magna spin. The supernatant was then removed. The beads were washed with assay buffer twice to remove excess vitronectin and then re-suspended in 150 μL of assay buffer containing 1:500 Anti-vitronectin Ab conjugated with FITC. The tubes were placed in a tube roller and incubated at 4° C. overnight. […] The beads were then re-suspended in […] PBS and analyzed by a Flow Cytometer (BD FACSCalibur, Software—BD Cell Quest Pro Version 6).
The samples were acquired using a BD FACSCalibur system and analyzed with BD Cell quest pro Version 6. […] Percentage of binding was calculated with respect to full reaction. […]

Sequence of αvβ3 (P06756 31-992): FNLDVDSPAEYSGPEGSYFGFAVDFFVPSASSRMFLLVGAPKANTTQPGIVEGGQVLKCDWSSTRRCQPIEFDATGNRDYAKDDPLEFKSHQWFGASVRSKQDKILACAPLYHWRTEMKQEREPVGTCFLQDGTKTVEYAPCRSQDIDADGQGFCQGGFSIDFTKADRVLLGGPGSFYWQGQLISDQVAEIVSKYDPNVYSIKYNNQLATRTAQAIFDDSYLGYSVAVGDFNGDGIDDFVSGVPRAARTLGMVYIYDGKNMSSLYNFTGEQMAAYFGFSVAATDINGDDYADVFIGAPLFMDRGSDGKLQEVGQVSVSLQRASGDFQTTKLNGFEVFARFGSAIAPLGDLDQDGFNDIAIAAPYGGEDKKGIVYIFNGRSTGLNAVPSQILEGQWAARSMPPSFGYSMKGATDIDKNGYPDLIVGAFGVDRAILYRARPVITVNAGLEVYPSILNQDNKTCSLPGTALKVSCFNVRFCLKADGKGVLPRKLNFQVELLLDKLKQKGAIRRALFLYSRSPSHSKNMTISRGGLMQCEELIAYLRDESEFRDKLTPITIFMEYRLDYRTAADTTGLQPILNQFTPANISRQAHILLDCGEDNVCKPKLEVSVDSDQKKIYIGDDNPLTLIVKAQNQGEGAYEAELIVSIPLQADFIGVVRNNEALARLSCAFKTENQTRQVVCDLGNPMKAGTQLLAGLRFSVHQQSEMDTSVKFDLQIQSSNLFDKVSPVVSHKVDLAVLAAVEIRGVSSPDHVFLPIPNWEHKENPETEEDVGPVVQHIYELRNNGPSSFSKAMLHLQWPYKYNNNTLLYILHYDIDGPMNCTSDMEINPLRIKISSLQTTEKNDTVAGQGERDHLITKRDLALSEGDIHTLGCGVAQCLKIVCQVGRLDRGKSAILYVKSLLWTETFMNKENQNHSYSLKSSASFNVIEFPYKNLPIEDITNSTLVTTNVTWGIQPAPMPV
Sequence of αvβ3 (P05106 27-718): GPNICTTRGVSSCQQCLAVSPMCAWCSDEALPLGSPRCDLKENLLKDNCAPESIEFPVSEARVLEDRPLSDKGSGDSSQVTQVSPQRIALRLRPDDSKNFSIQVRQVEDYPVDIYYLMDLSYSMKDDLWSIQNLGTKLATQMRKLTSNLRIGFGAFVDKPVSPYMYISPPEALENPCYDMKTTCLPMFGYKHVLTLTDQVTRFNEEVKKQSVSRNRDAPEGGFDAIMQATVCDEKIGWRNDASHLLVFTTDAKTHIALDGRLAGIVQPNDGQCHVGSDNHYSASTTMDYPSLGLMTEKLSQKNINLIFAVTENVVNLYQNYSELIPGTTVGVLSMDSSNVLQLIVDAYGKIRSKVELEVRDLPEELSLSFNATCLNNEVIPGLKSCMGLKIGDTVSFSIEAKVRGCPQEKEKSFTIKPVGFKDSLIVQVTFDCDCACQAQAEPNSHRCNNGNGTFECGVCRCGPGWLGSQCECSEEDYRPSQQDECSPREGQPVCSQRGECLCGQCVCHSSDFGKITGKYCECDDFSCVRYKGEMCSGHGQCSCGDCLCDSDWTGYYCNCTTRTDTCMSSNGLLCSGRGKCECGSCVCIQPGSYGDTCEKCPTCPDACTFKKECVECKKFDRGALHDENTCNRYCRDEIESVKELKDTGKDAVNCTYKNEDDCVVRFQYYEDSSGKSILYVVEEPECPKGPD
Sequence of αvβ8 (P06756 31-992): as the sequence (P06756 31-992) above
Sequence of αvβ8 (P26012 43-684): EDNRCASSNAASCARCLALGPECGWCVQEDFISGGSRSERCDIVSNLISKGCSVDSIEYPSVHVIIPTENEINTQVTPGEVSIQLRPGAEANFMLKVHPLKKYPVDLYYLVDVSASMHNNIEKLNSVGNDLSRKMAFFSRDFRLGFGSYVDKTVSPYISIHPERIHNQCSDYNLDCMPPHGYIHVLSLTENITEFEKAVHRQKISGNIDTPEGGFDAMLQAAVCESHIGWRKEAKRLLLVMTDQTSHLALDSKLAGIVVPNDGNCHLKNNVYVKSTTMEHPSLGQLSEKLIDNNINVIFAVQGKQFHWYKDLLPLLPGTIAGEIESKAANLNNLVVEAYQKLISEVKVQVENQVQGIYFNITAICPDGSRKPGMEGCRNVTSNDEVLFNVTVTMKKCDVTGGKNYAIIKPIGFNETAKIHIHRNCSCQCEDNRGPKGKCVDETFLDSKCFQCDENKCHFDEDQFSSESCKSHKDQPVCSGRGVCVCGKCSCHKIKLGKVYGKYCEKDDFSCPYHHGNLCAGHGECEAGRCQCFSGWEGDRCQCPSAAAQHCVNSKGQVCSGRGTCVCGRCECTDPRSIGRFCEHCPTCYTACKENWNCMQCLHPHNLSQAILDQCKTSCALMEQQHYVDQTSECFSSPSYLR
Sequence of αvβ6 (P06756 31-992): as the sequence (P06756 31-992) above
Sequence of αvβ6 (P18564 22-707): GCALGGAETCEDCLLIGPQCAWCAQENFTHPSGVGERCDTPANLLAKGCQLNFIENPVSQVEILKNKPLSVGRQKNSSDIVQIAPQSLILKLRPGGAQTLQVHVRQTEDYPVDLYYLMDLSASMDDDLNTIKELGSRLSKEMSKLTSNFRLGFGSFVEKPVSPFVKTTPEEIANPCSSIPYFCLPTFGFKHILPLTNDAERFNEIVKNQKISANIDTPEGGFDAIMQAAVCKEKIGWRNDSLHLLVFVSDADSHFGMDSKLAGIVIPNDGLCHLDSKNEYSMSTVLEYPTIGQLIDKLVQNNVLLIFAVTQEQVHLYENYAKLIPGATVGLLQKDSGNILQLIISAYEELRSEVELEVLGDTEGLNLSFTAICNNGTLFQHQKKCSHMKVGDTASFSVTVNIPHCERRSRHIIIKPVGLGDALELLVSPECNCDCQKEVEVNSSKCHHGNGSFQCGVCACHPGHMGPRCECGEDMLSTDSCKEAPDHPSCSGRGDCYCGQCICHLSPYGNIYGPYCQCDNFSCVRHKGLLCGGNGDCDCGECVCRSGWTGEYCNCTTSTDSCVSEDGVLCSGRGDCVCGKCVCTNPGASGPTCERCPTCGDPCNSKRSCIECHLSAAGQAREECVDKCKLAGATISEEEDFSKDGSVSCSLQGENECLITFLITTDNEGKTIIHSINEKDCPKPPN

| SMILES | pIC50 (αvβ6) | αvβ8/αvβ6 (αvβ6) | pIC50 (αvβ8) | pIC50 (αvβ3) |
| --- | --- | --- | --- | --- |
| O=C(O)CC(CCCCCCc1ccc2c(n1)NCCC2)c1ccc(OC(F)F)nc1 (stereo not shown) [Compound A3, 3-(6-(difluoromethoxy)pyridin-3-yl)-9-(5,6,7,8-tetrahydro-1,8-naphthyridin-2-yl)nonanoic acid] | 7.74 | 4.37 | 7.10 | 9.24 |
| O=C(O)CC(CCCCCCc1ccc2c(n1)NCCC2)c1cnc2ccc(F)cc2c1 (stereo not shown) [Compound A4, 3-(6-fluoroquinolin-3-yl)-9-(5,6,7,8-tetrahydro-1,8-naphthyridin-2-yl)nonanoic acid] | 8.24 | 3.75 | 7.67 | 8.85 |
| O=C(O)CC(CCCCCCc1ccc2c(n1)NCCC2)c1cnc2cc(F)ccc2c1 (stereo not shown) [Compound A5, 3-(7-fluoroquinolin-3-yl)-9-(5,6,7,8-tetrahydro-1,8-naphthyridin-2-yl)nonanoic acid] | 8.00 | 6.41 | 7.19 | 7.18 |
| O=C(O)CC(CCCCCCc1ccc2c(n1)NCCC2)c1ccc(Cl)c(C(F)(F)F)c1 (stereo not shown) [Compound A23, 3-(4-chloro-3-(trifluoromethyl)phenyl)-9-(5,6,7,8-tetrahydro-1,8-naphthyridin-2-yl)nonanoic acid] | 7.83 | 10.18 | 6.82 | 8.37 |
